Values quoted from earlier work, collected in patent US20250090693A1, “BIOCOMPATIBLE COMPOSITION FOR LABELING TARGET LESION, AND PREPARATION METHOD THEREFOR” (NATIONAL CANCER CENTER, priority 2022, published 2025).

- time after injection until decomposed and disappearing or excreted through urine and feces (injected into the human body): about an hour
SMILES: CC1(C)C(/C=C/C=C/C=C/C=C2\N(CCCCS(=O)(=O)O)c3ccc4ccccc4c3C2(C)C)=[N+](CCCCS(=O)(=O)[O-])c2ccc3ccccc3c21 [indocyanine green (ICG), indocyanine green]
- clinical safety (18 breast cancer patients (T. Kitai, et al., Breast Cancer, 12:211-215, 2005)): safely used clinically
